How the values were obtained:
[1] = system: human smooth muscle cells; experiment: TNF-induced gene expression in human smooth muscle cells; assay type: cell-based; settings: TNF 6 hours; real time qPCR
Procedure: Activation of LXR by synthetic ligands inhibits inflammatory gene expression in multiple human cell types (FIG. 7A-C). TNFα plays a role in the induction of inflammatory mediators in during inflammation. Cells were treated for 6 hours with TNF as indicated and gene expression was measured by real time qPCR.

LXRα/RXRα = target: T1, LXRα/RXRα (Homo sapiens, UniProt Q13133); experiment: Luciferase reporter transfection in RAW 264.7 cells, LXRα/RXRα; assay type: cell-based; settings: 2 μM
T1 construct: expressed in transfected cells; host or cells: RAW 264.7
T1 sequence (Q13133 1-447): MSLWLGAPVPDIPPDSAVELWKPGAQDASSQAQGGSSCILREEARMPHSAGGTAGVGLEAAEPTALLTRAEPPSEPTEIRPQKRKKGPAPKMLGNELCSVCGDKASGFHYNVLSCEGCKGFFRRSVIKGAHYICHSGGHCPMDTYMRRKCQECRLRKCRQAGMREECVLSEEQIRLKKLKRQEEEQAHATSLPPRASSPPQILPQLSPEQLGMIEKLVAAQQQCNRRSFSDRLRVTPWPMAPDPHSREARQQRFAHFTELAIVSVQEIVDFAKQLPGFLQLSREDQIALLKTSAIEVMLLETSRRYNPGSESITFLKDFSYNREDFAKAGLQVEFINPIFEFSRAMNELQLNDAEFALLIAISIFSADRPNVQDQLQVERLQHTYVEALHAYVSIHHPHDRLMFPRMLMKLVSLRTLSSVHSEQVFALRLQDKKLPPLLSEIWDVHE
T1 sequence (P19793 1-462 partner): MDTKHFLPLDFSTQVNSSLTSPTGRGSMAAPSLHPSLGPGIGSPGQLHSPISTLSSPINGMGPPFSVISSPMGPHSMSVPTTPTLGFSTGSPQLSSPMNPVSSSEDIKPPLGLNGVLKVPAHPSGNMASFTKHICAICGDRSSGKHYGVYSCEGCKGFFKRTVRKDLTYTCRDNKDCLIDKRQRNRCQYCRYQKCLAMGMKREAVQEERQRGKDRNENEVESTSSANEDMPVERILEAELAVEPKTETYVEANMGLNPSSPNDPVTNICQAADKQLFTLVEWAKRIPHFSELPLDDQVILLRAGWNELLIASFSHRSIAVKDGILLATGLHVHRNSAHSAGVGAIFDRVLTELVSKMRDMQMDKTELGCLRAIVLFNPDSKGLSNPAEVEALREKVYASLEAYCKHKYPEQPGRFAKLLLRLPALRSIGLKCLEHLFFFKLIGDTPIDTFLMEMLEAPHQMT
Procedure: We next investigated the mechanism by which LXR inhibits iNOS and COX-2 expression. […] RAW 264.7 cells were transfected with expression vectors for either LXRα/RXRα or LXRβ/RXRα along with luciferase reporter constructs. The LXR agonist inhibited expression of both iNOS and COX-2 gene promoters in a receptor-dependent fashion (FIG. 4 A and B). […] E, A dominant-negative IKK expression vector (IKK DN) blocks LXR-dependent repression of the COX-2 promoter. Transfected cells were treated with DMSO (ctrl), GW3965 (GW), LPS, or GW3965 and LPS. […] RAW 264.7 cells were transiently transfected with expression vectors for LXRα/RXRα, LXRβ/RXRα or dominant-negative I kappa B kinase (IKK) along with iNOS (A), COX-2 (B, E, F), NF-κB (C), AP-1 (D) or COX-2/NF-κB mutant (F) luciferase reporters. […] As activation of iNOS and COX-2 gene promoters by LPS is known to depend on interactions between AP-1 and NF-κB transcription factors, the effect of LXR on minimal promoters containing binding sites for these factors was evaluated. […] Moreover, the inhibitory effect of LXR on the COX-2 promoter was lost when NF-κB activity was blocked by transfection of a dominant-negative IKK or when binding sites for NF-κB were mutated (FIGS. 4E and F). These observations indicate that inhibition of inflammatory gene expression by LXR ligands involves antagonism of NF-κB signaling.
Reagents and plasmids. […] Oxysterols, LDL and ox-LDL were from Sigma and Intracell, respectively. LPS from Salmonella typhimurium was from Sigma. Expression plasmids for LXRα, LXRβ and IKK-DN (Castrillo, A. et al. 2001 J Biol Chem 276:15854-15860; Laffitte, B. A. et al. 2001 Mol Cell Biol 21:7558-7568), and reporter plasmids for NOS-2, (NFκB)3-LUC, (AP-1)4-LUC and COX-2 have been described (Callejas, N. A. et al. 2000 Gastroenterology 119:493-501).
Cell culture and transfections. Thioglycolate-elicited peritoneal macrophages were cultured in RPMI containing 10% fetal bovine serum (FBS). RAW 264.7 cells were cultured in DMEM containing 10% FBS. For ligand treatments, cells were in cultured medium supplemented with 5% lipoprotein-deficient serum (LPDS) and ligands for 18 h before stimulation. Bacterial infection in vitro was performed as described (Chen, L. M. et al. 1996 Mol Microbiol 21:1101-1115). Transient transfections of RAW 264.7 cells were performed in triplicate in 48-well plates using Superfect reagent (Life Technologies). After transfection, cells were incubated in medium containing 10% LPDS and the indicated ligands for 18 h before stimulation with LPS for an additional 18 h. Luciferase activity was normalized to β-galactosidase activity. NO production was determined spectrophotometrically (Castrillo, A. et al. 2000 Mol Cell Biol 20:1692-1698).

induction of the COX-2 promoter by LPS (luciferase reporter) (LXRα/RXRα): inhibits induction
induction of the iNOS promoter by LPS (luciferase reporter) (LXRα/RXRα): inhibits induction
luciferase reporter containing multiple NF-κB binding sites (LXRα/RXRα; LPS): inhibits expression
COX-2 luciferase reporter lacking the NF-κB binding site (LXRα/RXRα; LPS, COX-2/NF-κB mutant): fails to inhibit
inhibitory effect on the COX-2 promoter with dominant-negative IKK (LXRα/RXRα; LPS, IKK-DN co-transfected, LXR vector not specified): lost
SMILES: O=C(O)Cc1cccc(OCCCN(Cc2cccc(C(F)(F)F)c2Cl)CC(c2ccccc2)c2ccccc2)c1 [GW3965]
TNF-induced gene expression [1]: inhibited

Source: patent US20040259948A1, “Reciprocal regulation of inflammation and lipid metabolism by liver X receptors” (priority 2003, published 2004)
